Read-outs that look alike come from different tables or passages of the source.
How the values were obtained:
Format in all cases: cell-based
[1] = test system: ADP-induced platelet aggregation; test: ADP-stimulated platelet aggregation in concentrated human platelet-rich plasma (aggregometer); conditions: aggregation factor ADP, human concentrated PRP, —: no effect
Description: (§1) To measure the activity against collagen-stimulated platelet aggregation of the novel compound identified from the Ginkgo biloba bark, concentrated human platelet-rich-plasma (PRP) was first prepared. The PRP used in the present invention was obtained by collecting blood from volunteers in Hallym University Medical Center, centrifuging the blood at 1,000 rpm and room temperature for 10 minutes to collect pure supernatant PRP and centrifuging the supernatant PRP at 3,000 rpm and room temperature for 10 minutes. The obtained PRP was separated into platelet-poor plasma (PPP) and platelets (PLTs). Then, concentrated PRP was prepared in the following manner. That is, platelets (PLTs) were suspended in a suitable amount of the supernatant PPP and measured for absorbance at 660 nm using a UV/visible spectrophotometer. Based on the measured absorbance, the suspension was further diluted with an excess of PPP to prepare concentrated PRP containing 5×10^8 platelets/ml. Herein, an OD value of 1.1 at 660 nm means 1×10^8 PLTs. A washing buffer used in the present invention was a pH 6.5 buffer containing 129 mM NaCl, 10.9 mM sodium citrate dihydrate, 8.9 mM NaHCO3, 1 mg/ml glucose, 10 mM tris-hydroxymethylaminomethane, 2.8 mM KCl, 0.8 mM KH2PO4 and 2 mM EDTA. Also, a suspension buffer used in this test example was a pH 6.9 buffer, which was the same as said washing buffer, except that it contained no EDTA. The platelet aggregation inhibitory effect of the novel compound was examined using the prepared concentrated PRP in the following manner. First, the concentrated PRP was used to make 500 μl of an in vitro reaction system. For use as a control group, the concentrated PRP was stabilized at 37° C. for 3 minutes and treated with collagen (Chrono-LogCo.) as a stimulating agent at a concentration of 10 μg/ml, and the aggregation of platelets in the reaction system was induced for 5 minutes. Meanwhile, the same reaction system as described above was treated with the novel compound, was allowed to react with the novel compound for 3 minutes, was stimulated with collagen for 6 minutes according to the same method as described above so as to induce platelet aggregation, and then was measured for aggregated platelets. The aggregation of platelets was measured with a change in light transmission using an aggregometer (Chrono-Log Co.) at 37° C. The measurement results are shown in Table 1 below and FIGS. 6, 7 and 8. Table 1 summarizes the antiplatelet aggregation activities of aspirin, the novel compound and ginkgolide A and B against platelet aggregation factors, including ADP, collagen and arachidonic acid. […]

[2] = test system: collagen-stimulated platelet aggregation; test: Collagen-stimulated platelet aggregation in concentrated human platelet-rich plasma (aggregometer); conditions: human concentrated PRP; for IC50: aggregation factor collagen 10 μg/ml, 37° C., read-out: IC50 antiplatelet aggregation activity, Collagen
Description: To measure the activity against collagen-stimulated platelet aggregation of the novel compound identified from the Ginkgo biloba bark, concentrated human platelet-rich-plasma (PRP) was first prepared. The PRP used in the present invention was obtained by collecting blood from volunteers in Hallym University Medical Center, centrifuging the blood at 1,000 rpm and room temperature for 10 minutes to collect pure supernatant PRP and centrifuging the supernatant PRP at 3,000 rpm and room temperature for 10 minutes. The obtained PRP was separated into platelet-poor plasma (PPP) and platelets (PLTs). Then, concentrated PRP was prepared in the following manner. That is, platelets (PLTs) were suspended in a suitable amount of the supernatant PPP and measured for absorbance at 660 nm using a UV/visible spectrophotometer. Based on the measured absorbance, the suspension was further diluted with an excess of PPP to prepare concentrated PRP containing 5×10^8 platelets/ml. Herein, an OD value of 1.1 at 660 nm means 1×10^8 PLTs. A washing buffer used in the present invention was a pH 6.5 buffer containing 129 mM NaCl, 10.9 mM sodium citrate dihydrate, 8.9 mM NaHCO3, 1 mg/ml glucose, 10 mM tris-hydroxymethylaminomethane, 2.8 mM KCl, 0.8 mM KH2PO4 and 2 mM EDTA. Also, a suspension buffer used in this test example was a pH 6.9 buffer, which was the same as said washing buffer, except that it contained no EDTA. The platelet aggregation inhibitory effect of the novel compound was examined using the prepared concentrated PRP in the following manner. First, the concentrated PRP was used to make 500 μl of an in vitro reaction system. For use as a control group, the concentrated PRP was stabilized at 37° C. for 3 minutes and treated with collagen (Chrono-LogCo.) as a stimulating agent at a concentration of 10 μg/ml, and the aggregation of platelets in the reaction system was induced for 5 minutes. Meanwhile, the same reaction system as described above was treated with the novel compound, was allowed to react with the novel compound for 3 minutes, was stimulated with collagen for 6 minutes according to the same method as described above so as to induce platelet aggregation, and then was measured for aggregated platelets. The aggregation of platelets was measured with a change in light transmission using an aggregometer (Chrono-Log Co.) at 37° C. The measurement results are shown in Table 1 below and FIGS. 6, 7 and 8. Table 1 summarizes the antiplatelet aggregation activities of aspirin, the novel compound and ginkgolide A and B against platelet aggregation factors, including ADP, collagen and arachidonic acid. […] In the case of the group treated with the novel compound, when arachidonic acid was used as the aggregation factor, the aggregation of platelets occurred only upon stimulation with 1,000 μM (i.e., 1 mM) or higher concentration of arachidonic acid.

[3] = test system: arachidonic acid-stimulated platelet aggregation; test: Arachidonic acid-stimulated platelet aggregation in concentrated human platelet-rich plasma (aggregometer); conditions: for arachidonic acid-stimulated platelet aggregation in treated groups: groups treated with the compound
Description: as §1

[4] = arachidonic acid as aggregation factor

IC50 ([1]; Platelet, read-out: IC50 antiplatelet aggregation activity, ADP) | IC50 ([2]; Platelet) | IC50 antiplatelet aggregation activity, ADP [1] | IC50 [2] | IC50 ([3]; Platelet, aggregation factor arachidonic acid, human concentrated PRP, —: no effect, read-out: IC50 antiplatelet aggregation activity, AA) | SMILES | inhibitory activity on collagen-stimulated platelet aggregation (FIGS. 6-8) [2] | arachidonic acid-stimulated platelet aggregation in treated groups [3, 4] | concentration of arachidonic acid at which aggregation of platelets occurred in the treated group ([3]; arachidonic acid as aggregation factor, group treated with the compound)
316 µM | 203 µM | – | – | – | CC(=O)Oc1ccccc1C(=O)O [Aspirin] | inhibited platelet aggregation in a concentration-dependent manner | – | –
– | – | did not show an effect | 482 µM | – | C[C@@H]1C(=O)O[C@H]2C[C@@]34[C@H]5C[C@@H](C(C)(C)C)[C@]36[C@@H](OC(=O)[C@@H]6O)O[C@@]4(C(=O)O5)[C@]21O [Gingkolide A] | inhibited collagen-stimulated platelet aggregation in a concentration-dependent manner | did not occur | –
– | – | did not show an effect | 480 µM | – | C[C@@H]1C(=O)O[C@H]2[C@@H](O)[C@@]34[C@H]5C[C@@H](C(C)(C)C)[C@]36[C@@H](OC(=O)[C@@H]6O)O[C@@]4(C(=O)O5)[C@@]12O [Gingkolide B] | inhibited collagen-stimulated platelet aggregation in a concentration-dependent manner | did not occur | –
– | 680 µM | did not show an effect | – | > 1000 µM | COc1cc(-c2oc3cc(OC)c(CCCO)cc3c2C=O)ccc1O [Novel compound, 5-(3-hydroxyprophyl)-6-methoxy-2-(3′-methoxy-4′-hydroxyphenyl)-3-benzo[b]furancarbaldehyde] | inhibited collagen-stimulated platelet aggregation in a concentration-dependent manner | – | ≥ 1,000 μM
